Test results: ChEMBL document CHEMBL1156275, “Thioether acetamides as P3 binding elements for tetrahydropyrido-pyrazole cathepsin S inhibitors” (Bioorg Med Chem Lett, 2010)

Legend:
Cathepsin S [1] = target: T1, Cathepsin S (Homo sapiens, UniProt P25774); assay: Inhibition of cathepsin S in human JY cells assessed as accumulation of invariant chain p10li after 24 hrs by Western blot analysis; format: cell-based
Cathepsin S [2] = target: T1, Cathepsin S; assay: Inhibition of human recombinant cathepsin S expressed in baculovirus expression sytem after 15 mins by FRET assay

T1 sequence (P25774 whole entry): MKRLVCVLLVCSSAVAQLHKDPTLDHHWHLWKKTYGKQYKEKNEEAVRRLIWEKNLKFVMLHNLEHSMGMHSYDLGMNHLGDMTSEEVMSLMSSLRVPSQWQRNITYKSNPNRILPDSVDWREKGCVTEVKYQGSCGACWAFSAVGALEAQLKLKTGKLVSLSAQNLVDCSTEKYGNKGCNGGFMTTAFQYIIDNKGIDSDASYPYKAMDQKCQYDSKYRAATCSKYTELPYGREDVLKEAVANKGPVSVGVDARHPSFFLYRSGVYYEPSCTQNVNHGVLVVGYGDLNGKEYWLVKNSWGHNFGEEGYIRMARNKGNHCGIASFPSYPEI

| IC50 (Cathepsin S [1]) [nM] | IC50 (Cathepsin S [2]) [nM] | Structure (SMILES) |
| --- | --- | --- |
| > 10000 |  | CS(=O)(=O)N1CCc2c(c(-c3ccc(C(F)(F)F)c(SCCNC(=O)Cc4ccccc4)c3)nn2CC(O)CN2CCC(N3CCCC3=O)CC2)C1 (stereo unspecified) |
| 30 | 7 | CS(=O)(=O)N1CCc2c(c(-c3ccc(C(F)(F)F)c(SCC(=O)N4CC[C@H](O)C4)c3)nn2CC(O)CN2CCC(c3ccccn3)CC2)C1 (stereo partly specified) |
| 1540 |  | CS(=O)(=O)N1CCc2c(c(-c3ccc(C(F)(F)F)c(SCC(=O)N4CCCCC4)c3)nn2CC(O)CN2CCC(c3ccccn3)CC2)C1 (stereo unspecified) |
| 280 | 40 | CS(=O)(=O)N1CCc2c(c(-c3ccc(C(F)(F)F)c(SCC(=O)N4CCCC4)c3)nn2CCCN2CCC(C(=O)N3CCCC3)CC2)C1 |
| 10000 |  | CS(=O)(=O)N1CCc2c(c(-c3ccc(C(F)(F)F)c(SCC(=O)NCc4ccccc4)c3)nn2CCCN2CCC(N3CCCC3=O)CC2)C1 |
| 110 | 740 | CN1CCN(C(=O)CSc2cc(-c3nn(CCCN4CCC(N5CCCC5=O)CC4)c4c3CN(S(C)(=O)=O)CC4)ccc2C(F)(F)F)CC1 |
| 3920 | 70 | CS(=O)(=O)N1CCc2c(c(-c3ccc(C(F)(F)F)c(SCC(=O)N4CCCCC4)c3)nn2CCCN2CCC(N3CCCC3=O)CC2)C1 |
| 450 | 20 | CS(=O)(=O)N1CCc2c(c(-c3ccc(C(F)(F)F)c(SCC(=O)N4CCOCC4)c3)nn2CCCN2CCC(N3CCCC3=O)CC2)C1 |
| 6000 |  | CC1CCCN1C(=O)CSc1cc(-c2nn(CCCN3CCC(N4CCCC4=O)CC3)c3c2CN(S(C)(=O)=O)CC3)ccc1C(F)(F)F (stereo unspecified) |
| 8000 | 210 | CC1CCN(C(=O)CSc2cc(-c3nn(CCCN4CCC(N5CCCC5=O)CC4)c4c3CN(S(C)(=O)=O)CC4)ccc2C(F)(F)F)CC1 |
| 340 |  | CS(=O)(=O)N1CCc2c(c(-c3ccc(C(F)(F)F)c(SCC(=O)N4CCC(CO)CC4)c3)nn2CCCN2CCC(N3CCCC3=O)CC2)C1 |
| 1970 |  | CS(=O)(=O)N1CCc2c(c(-c3ccc(C(F)(F)F)c(SCC(=O)N4CCCC4)c3)nn2CCCN2CCC(N3CCCC3=O)CC2)C1 |
| 40 |  | CS(=O)(=O)N1CCc2c(c(-c3ccc(C(F)(F)F)c(SCCN4CCCCC4)c3)nn2CCCN2CCC(N3CCCC3=O)CC2)C1 |
| 10000 | 300 | C[C@H]1CCCCN1CC(O)Cn1nc(-c2ccc(C(F)(F)F)c(SCC(=O)N3CCOCC3)c2)c2c1CCN(S(C)(=O)=O)C2 (mixture of isomers) |
| 30 | 7 | CS(=O)(=O)N1CCc2c(c(-c3ccc(C(F)(F)F)c(SCC(=O)N4CC[C@@H](O)C4)c3)nn2CC(O)CN2CCC(c3ccccn3)CC2)C1 (mixture of isomers) |
|  | 250 | CCN1CCc2c(c(-c3ccc(C(F)(F)F)c(SCC(=O)N4CCCC4)c3)nn2CC(O)CN2CCC(c3ccccn3)CC2)C1 (racemic) |
| 160 |  | O=C(CSc1cc(-c2nn(CC(O)CN3CCC(c4ccccn4)CC3)c3c2CN(C(=O)CO)CC3)ccc1C(F)(F)F)N1CCOCC1 (racemic) |
| 1680 |  | O=C(CSc1cc(-c2nn(CC(O)CN3CCC(c4ccccn4)CC3)c3c2CNCC3)ccc1C(F)(F)F)N1CCOCC1 (racemic) |
| 470 | 1 | CS(=O)(=O)N1CCc2c(c(-c3ccc(C(F)(F)F)c(SCC(=O)N4CCCC4)c3)nn2CC(O)CN2CCC(c3ccccn3)CC2)C1 (racemic) |
| 3130 | 10 | CS(=O)(=O)N1CCc2c(c(-c3ccc(C(F)(F)F)c(SCC(=O)N4CCOCC4)c3)nn2CC(O)CN2CCC(c3ccccc3F)CC2)C1 (racemic) |
| 190 |  | COc1ccccc1C1CCN(CC(O)Cn2nc(-c3ccc(C(F)(F)F)c(SCC(=O)N4CCOCC4)c3)c3c2CCN(S(C)(=O)=O)C3)CC1 (racemic) |
| 380 |  | CS(=O)(=O)N1CCc2c(c(-c3ccc(C(F)(F)F)c(SCC(=O)N4CCOCC4)c3)nn2CC(O)CN2CCC(c3ccccn3)CC2)C1 (racemic) |
| 520 |  | CS(=O)(=O)N1CCc2c(c(-c3ccc(C(F)(F)F)c(SCC(=O)N4CCC(O)C4)c3)nn2CCCN2CCC(N3CCCC3=O)CC2)C1 (racemic) |
| 110 |  | CC(=O)N1CCc2c(c(-c3ccc(C(F)(F)F)c(SCC(=O)N4CCCC4)c3)nn2CC(O)CN2CCC(C(C)(C)O)CC2)C1 (racemic) |
| 80 | 180 | CC(=O)N1CCc2c(c(-c3ccc(C(F)(F)F)c(SCC(=O)N4CCCC4)c3)nn2CC(O)CN2CCC(C)CC2)C1 (racemic) |
| 120 |  | COc1ccccc1C1CCN(CC(O)Cn2nc(-c3ccc(C(F)(F)F)c(SCC(=O)N4CCCC4)c3)c3c2CCNC3)CC1 (racemic) |
| 1850 | 190 | COc1ccccc1C1CCN(CC(O)Cn2nc(-c3ccc(C(F)(F)F)c(SCC(=O)N4CCOCC4)c3)c3c2CCNC3)CC1 (racemic) |
| 900 |  | COc1ccccc1C1CCN(CC(O)Cn2nc(-c3ccc(C(F)(F)F)c(SCC(=O)N4CCOCC4)c3)c3c2CCN(C(C)=O)C3)CC1 (racemic) |
| 480 |  | COc1ccccc1C1CCN(CC(O)Cn2nc(-c3ccc(C(F)(F)F)c(SCC(=O)N4CCOCC4)c3)c3c2CCN(C(=O)CO)C3)CC1 (racemic) |
